The values below come from US20130079345A1, “[…] ACTIVE DISUBSTITUTED TRIAZINE DERIVATIVES” (BAYER INTELLECTUAL PROPERTY GMBH, priority 2010, published 2013).

For test [1], the target named is T1, CDK9/Cyclin K (Homo sapiens, UniProt P50750).
T1 construct: purchased Invitrogen
The test is described as follows: LanthaScreen Eu Kinase Binding Assay, CDK9/Cyclin K. As to conditions: tracer 236, read-out: Affinity (Kd) CDK9/Cyclin K. The procedure:
(§1) This protocol describes how the LanthaScreen Eu Kinase Binding Assay was performed to determine dissociation constants (Kd) of compounds of general formula (I) and CDK/Cyclin complexes. The principle behind this assay is based upon the binding and displacement of an Alexa Fluor 647-labeled tracer, which binds to the active site of kinases. Binding of the tracer to the kinase is detected using a Eu-labeled antibody. Simultaneous binding of both the tracer and antibody to the kinase gives rise to a FRET-signal. Binding of an inhibitor to the kinase competes for binding with the tracer, resulting in a loss of FRET.
(§2) The compounds of general formula (I) summarized in Table 1 were diluted from a 10 mM DMSO stock solution 1:10 in a total volume of 15 μL DMSO. This compound predilution was then serial diluted 1:3 over 8 steps in DMSO and briefly spun down. Each compound solution was now diluted 1:33.33 in kinase buffer (HEPES: 20 mM, pH: 8.0; MgCl2: 10 mM; DTT: 1 mM; Brij-35: 0.01%), mixed thoroughly and spun down. For every sample, 5 μL of the diluted compound were mixed with 5 μL tracer working solution (e.g. 60 nM tracer 236 in kinase buffer for CDK2/Cyclin A) and 5 μL CDK/Cyclin/Anti-GST-AB-working solution (e.g. 15 nM CDK2/Cyclin A, 1:250 dilution of Anti-GST-AB in kinase buffer) in a well of a small volume 384 well plate (Corning Incorporated, Corning, N.Y., USA; order no. 3673). […] For positive controls, in each well 5 μL of DMSO working solution (3% DMSO diluted in kinase buffer) was mixed with 5 μL CDK/Cyclin/Anti-GST-AB-working solution: (e.g. 15 nM CDK2/Cyclin A, 1:250 dilution of Anti-GST-AB in kinase buffer) and 5 μL Tracer working solution (e.g. 60 nM Tracer 236 in kinase buffer for CDK2/Cyclin A). Positive and negative controls were calculated from at least 8 different sample wells. The 384 well plates were mixed in a Teleshaker plate mixer (Beckman Coulter, Brea, Calif., USA) at 2000 rpm for 40 sec, and incubated for 1 h at room temperature before reading. The FRET signal was measured at 340 nm excitation, 665 nm and 615 nm emission (for the kinase tracer and LanthaScreen Eu-AB, respectively) with an Envision spectrophotometer (Perkin Elmer, Waltham, Mass., USA) with 50 μs delay and 300 μs integration time. Kd values were determined from the sigmoidal dose response curves with the software Quattro Workflow (Quattro GmbH, Munich, Germany).
A general note: In TR-FRET formats the signal depends on donor and acceptor labels being close together.

Test [2] addresses T2, CDK8/Cyclin C (Homo sapiens, UniProt P49336).
T2 construct: purchased Invitrogen
The test is described as follows: LanthaScreen Eu Kinase Binding Assay, CDK8. The following applies: tracer 236, read-out: Affinity (Kd) CDK8. The protocol:
as §1, §2

The target of test [3] is T3, CDK9/Cyclin T1 (Homo sapiens, UniProt P50750).
T3 construct: purchased Invitrogen
The test is described as follows: LanthaScreen Eu Kinase Binding Assay, CDK9/Cyclin T1. The following applies: tracer 236, read-out: Affinity (Kd) CDK9/Cyclin T1. The procedure: as §1, §2

Test [4] deals with T4, CDK7/CyclinH/Mat1 (Homo sapiens, UniProt P50613).
T4 construct: purchased Carna Biosciences
Description: LanthaScreen Eu Kinase Binding Assay, CDK7. The following applies: tracer 236, read-out: Affinity (Kd) CDK7. The protocol:
as §1, §2

Test [5] concerns NF-kappaB reporter gene activation in HEK293 cells. The test is described as follows: NF-kappaB reporter assay. The following applies: Homo sapiens, 20 ng/ml TNF alpha, 5 h. The test is classed as cell-based. The protocol: Cells were maintained in RPMI cell culture medium+glutamine (PAN Biotech GmbH, Aidenbach, Germany) supplemented with 10% fetal calf serum (PAA Laboratories GmbH, Pasching, Austria) and grown at 37° C., 5% CO2. HEK293 cells grown to 50% confluence were transfected with the Amaxa® Cell Line Nucleofector® Kit V (Lonza, Basel, Switzerland, catalog #VCA-1003). Transfections were performed according to manufacturer's optimized protocol for transfection of HEK293 cells. In brief, 2×10^5 cells were transfected with 5 μg highly purified plasmid DNA. Cells were transfected with a NF-kappa B reporter plasmid (pNFkBluc), pTALluc for control, or pMAXGFP for transfection control. After transfection, cells were taken up in 500 μL RPMI1640 cell culture medium, incubated for 1 h at 37° C., and 4.5 ml DMEM without phenol red were added per transfection. Transfected cells were seeded in 96 well plates (Greiner Bio-One, Frickenhausen, Germany, catalog #655098) with 100 μL cell suspension per well and incubated for 48 h. To each well, 100 μL DMEM with 2× concentrated compound diluted from 10 mM DMSO stocks, or 100 μL DMEM with 0.4% DMSO for control wells, was added. The compounds of general formula (I) summarized in Table 6 were used in this assay. Cells were stimulated with 20 ng/ml TNF alpha, and plates were incubated for 5 h at 37° C./5% CO2. Cell culture supernatants were removed to leave 100 μl medium per well, followed by addition of 100 μl Bright Glo luciferase assay reagent (Promega, Madison, Wis., USA, catalog #E2620), and shaking for 5 minutes in the dark. Luminescence was measured with a Victor Photospectrometer (Perkin Elmer, Waltham, Mass., USA). […], values were calculated with the software Excel Fit (IDBS, Guildford, UK) from 2-fold dilution series comprising at least 10 concentrations in duplicates.

Test [6] has as its system RNA Polymerase II Ser2 phosphorylation (cellular CDK9 activity) in HCT-116 cells. Description: RNA-Polymerase II Ser2 cellular phosphorylation assay. It is filed as cell-based. The following applies: Homo sapiens, normalized with tubulin. The protocol: HCT-116 cells (DSMZ, Braunschweig, Germany) were maintained in Mc Coy's cell culture medium+glutamine (PAN Biotech GmbH, Aidenbach, Germany) supplemented with 10% fetal calf serum (PAA Laboratories GmbH, Pasching, Austria) and grown at 37° C., 5% CO2. For the cellular phosphorylation assay, cells were seeded with 2×10^5 cells/well/1 ml in 24-well plates (Greiner Bio—One, Frickenhausen, Germany; catalog #662160). The compounds of general formula (I) summarized in Table 6 were diluted from a 10 mM DMSO stock solution 1:10 in a total volume of 15 μL DMSO. After overnight incubation at 37° C./5% CO2, 1.5 μL of a compound diluted in DMSO was added to each sample well. Wells with cells and 0.15% DMSO in culture medium were used as positive controls, wells without cells and 0.15% DMSO in culture medium were used as negative controls. The cells were incubated with the compounds for 72 h at 37° C./5% CO2. Before lysis, cells were washed with phosphate buffered saline. Phosphorylation of RNA Polymerase II Ser2 and tubulin levels for normalization were analyzed afterwards with the Multi-Array technology (Meso Scale Discovery, Gaithersburg, Md., USA), a combination of antibody coupled electrochemiluminescence detection and patterned arrays. Manufacturer's instructions were followed and all solutions were purchased from Meso Scale Discovery. In brief, cells were lysed by 30 min incubation in CLB1 lysis buffer (Zeptosens, Witterswil, Switzerland; 60 μL per well), and supernatants were cleared by centrifugation. For analysis of RNA Polymerase II Ser2-phosphorylation, lysates were diluted 1:50 with Meso Scale Lysis Buffer supplemented with phosphatase- and protease-inhibitors, and 25 µL of each sample was pipetted in a well of a MSD Multi-Array 96-Well Plate Sector® Imager High Bind Plate (Meso Scale Discovery; catalog #L15XB-3/L11XB-3), and incubated for 2 h at room temperature. […] Meso Scale Tris Wash Buffer supplemented with 3% w/v Meso Scale Blocker A were added per well, then plates were sealed and incubated 1 h with vigorous shaking. Plates were washed with 1× Tris Wash Buffer (10× Meso Scale Wash Buffer diluted 1:10 in destilled water), 25 μL of antibody solution was added (CTD7 3E10 antibody from Helmholtz Zentrum Munich, Germany, diluted 1:100 in Meso Scale Tris Wash Buffer supplemented with 1% w/v Meso Scale Blocker A), and plates were washed three times in 1× Tris Wash Buffer. 25 μL of MSD® SULFO-TAG™ Goat-Anti-Rat-Antibody (Meso Scale Discovery, catalog #R^32AH-1, diluted 1:125 in Tris Wash Buffer with 1% (w/v) blocker A) were added per well, plates were sealed and incubated with vigorous shaking for 1 h at room temperature. Finally, plates were washed three times with Tris Wash Buffer, 150 μl 2× Read Buffer (Meso Scale Discovery) were added per well and plates were analyzed immediately in a Sector Imager from Meso Scale Discovery. For determination of tubulin protein levels, samples were analyzed with the protocol for RNA Polymerase II Ser2-phosphorylation, with an anti-tubulin antibody (rabbit; BIODESIGN International, catalog #T59840R, diluted 1:100) and a MSD® SULFO-TAG™ […] (Meso Scale Discovery, catalog #R^32AH-1, diluted 1:125). RNA Polymerase II Ser2 phosphorylation was normalized with tubulin protein levels, and EC50 values were calculated with the software XLFit (IDBS, Guildford, UK) from 2-fold dilution series comprising 6 concentrations in duplicates.

Test [7] concerns the target T4, CDK7/CyclinH/Mat1. The test is described as follows: Lance Ultra KinaSelect Assay, CDK7. As to conditions: ATP 25 μM, read-out: Inhibition (IC50) CDK7. The test is classed as biochemical. The protocol:
(§3) This protocol describes how the Lance Ultra KinaSelect Assay was performed to determine half maximal inhibitory concentration (IC50) of compounds of general formula (I) and CDK/Cyclin complexes. The principle behind this enzymatic assay is based upon the phosphorylation of the ULight-Peptide Substrat. It is detected by using a specific EU-labeled anti-phospho peptide antibody. The binding of the Eu-labeled anti-phospho peptide antibody to the phosphorylated U Light labeled peptide gives rise to a FRET-signal. Binding of an inhibitor to the kinase prevents phosphorylation of the ULight-MBP Substrat, resulting in a loss of FRET.
(§4) The compounds of general formula (I) summarized in Table 5 were diluted from a 10 mM DMSO stock solution 1:10 in a total volume of 15 μL DMSO. This compound predilution was then serial diluted 1:3 over 8 steps in DMSO and briefly spun down. Each compound solution was now diluted 1:20 in Enzymatic Buffer (HEPES: 50 mM, pH: 7.5; MgCl2: 10 mM; EGTA: 1 mM; DTT: 2 mM; Tween-20: 0.01%), mixed thoroughly and spun down. For every sample, 2 μL of the diluted compound were mixed with 6 μL CDK/Cyclin/Substrat solution and […] in a well of a small volume 384 well plate (Corning Incorporated, Corning, N.Y., USA; order no. 3673). […] For positive controls, in each well 2 μL of DMSO solution (1% final DMSO assay concentration) was mixed with 6 μL CDK/Cyclin/Substrat (appropriate final concentration see Table 3) and 2 μL Tracer ATP solution (appropriate final concentration see Table 3). Positive and negative controls were calculated from at least 8 different sample wells. The 384 well plates were mixed in a Teleshaker plate mixer (Beckman Coulter, Brea, Calif., USA) at 2000 rpm for 40 sec, and incubated for 1 h at room temperature. Before reading, 10 μL detection buffer (Lance Detection Buffer 1×; EDTA: […]; Eu-Anti-P-MBP: see Table 3) was added. The FRET signal was measured at 340 nm excitation, 665 nm and 615 nm emission (for the kinase tracer and LanthaScreen Eu-AB, respectively) with an Envision spectrophotometer (Perkin Elmer, Waltham, Mass., USA) with 50 μs delay and 300 μs integration time. IC50 values were determined from the sigmoidal dose response curves with the software Quattro Workflow (Quattro GmbH, Munich, Germany).

Test [8] has as its target T5, CDK2/CyclinA (Homo sapiens, UniProt P24941).
T5 construct: purchased Proqinase
Description: Lance Ultra KinaSelect Assay, CDK2. It is filed as biochemical. The following applies: ATP 3 μM, read-out: Inhibition (IC50) CDK2. The procedure: as §3, §4

For test [9], the target named is T6, CDK9 (Homo sapiens, UniProt P50750).
T6 construct: purchased Invitrogen
The test is described as follows: Lance Ultra KinaSelect Assay, CDK9. It is filed as biochemical. As to conditions: read-out: Inhibition (IC50) CDK9. The protocol: as §3, §4

Test [10] deals with T5, CDK2/CyclinA. Description: LanthaScreen Eu Kinase Binding Assay, CDK2. As to conditions: tracer 236, read-out: Affinity (Kd) CDK2. The procedure: as §1, §2

Where only a bound is given, the exact number is not on record here.

T3 sequence (P50750 whole entry): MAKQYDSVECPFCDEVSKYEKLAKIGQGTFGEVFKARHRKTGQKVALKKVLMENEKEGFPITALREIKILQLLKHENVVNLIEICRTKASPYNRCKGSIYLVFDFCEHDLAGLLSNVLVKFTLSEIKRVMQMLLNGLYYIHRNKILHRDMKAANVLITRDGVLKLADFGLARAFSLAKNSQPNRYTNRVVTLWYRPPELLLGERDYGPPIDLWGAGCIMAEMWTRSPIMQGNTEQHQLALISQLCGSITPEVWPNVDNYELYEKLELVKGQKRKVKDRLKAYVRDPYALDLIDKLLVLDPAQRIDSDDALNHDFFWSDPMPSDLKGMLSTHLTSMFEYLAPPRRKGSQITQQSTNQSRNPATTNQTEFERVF
T3 sequence (O60563 whole entry partner): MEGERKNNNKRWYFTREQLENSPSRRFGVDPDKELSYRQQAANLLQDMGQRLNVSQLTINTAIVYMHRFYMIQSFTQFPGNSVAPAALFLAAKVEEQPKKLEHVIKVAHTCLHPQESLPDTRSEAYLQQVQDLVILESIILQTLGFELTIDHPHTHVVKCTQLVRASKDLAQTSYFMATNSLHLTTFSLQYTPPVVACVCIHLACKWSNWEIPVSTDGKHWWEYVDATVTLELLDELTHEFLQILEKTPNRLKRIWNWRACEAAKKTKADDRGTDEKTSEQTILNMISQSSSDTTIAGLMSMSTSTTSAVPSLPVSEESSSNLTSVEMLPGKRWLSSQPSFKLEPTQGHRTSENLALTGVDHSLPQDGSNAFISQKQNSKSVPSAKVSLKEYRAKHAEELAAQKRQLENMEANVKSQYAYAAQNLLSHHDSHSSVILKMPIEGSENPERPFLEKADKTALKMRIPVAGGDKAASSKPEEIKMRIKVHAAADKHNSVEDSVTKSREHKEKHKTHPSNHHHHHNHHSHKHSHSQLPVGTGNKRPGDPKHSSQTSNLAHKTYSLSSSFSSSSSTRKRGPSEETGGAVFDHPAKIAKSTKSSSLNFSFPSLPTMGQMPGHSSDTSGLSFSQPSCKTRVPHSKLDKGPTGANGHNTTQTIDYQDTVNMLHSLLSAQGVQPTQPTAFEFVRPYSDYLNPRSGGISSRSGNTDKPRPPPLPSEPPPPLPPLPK
T1 sequence (P50750 whole entry): as the sequence (P50750 whole entry) above
T1 sequence (O75909 whole entry partner): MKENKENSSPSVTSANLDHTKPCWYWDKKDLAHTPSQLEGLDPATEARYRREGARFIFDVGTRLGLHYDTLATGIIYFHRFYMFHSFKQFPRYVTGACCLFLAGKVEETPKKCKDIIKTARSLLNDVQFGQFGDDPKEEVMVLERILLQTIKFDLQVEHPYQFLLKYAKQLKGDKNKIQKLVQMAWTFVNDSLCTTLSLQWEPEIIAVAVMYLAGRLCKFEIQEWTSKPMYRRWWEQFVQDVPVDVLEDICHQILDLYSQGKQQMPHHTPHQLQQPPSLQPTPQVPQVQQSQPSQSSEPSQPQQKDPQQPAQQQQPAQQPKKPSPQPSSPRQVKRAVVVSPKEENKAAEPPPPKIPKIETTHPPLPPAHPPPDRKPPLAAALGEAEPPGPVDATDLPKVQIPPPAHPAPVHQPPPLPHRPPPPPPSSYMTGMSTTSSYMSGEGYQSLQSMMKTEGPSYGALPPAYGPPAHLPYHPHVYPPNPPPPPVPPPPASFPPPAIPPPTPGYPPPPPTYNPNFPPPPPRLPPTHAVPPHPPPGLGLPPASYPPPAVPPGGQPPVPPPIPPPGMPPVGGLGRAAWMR
T4 sequence (P50613 whole entry): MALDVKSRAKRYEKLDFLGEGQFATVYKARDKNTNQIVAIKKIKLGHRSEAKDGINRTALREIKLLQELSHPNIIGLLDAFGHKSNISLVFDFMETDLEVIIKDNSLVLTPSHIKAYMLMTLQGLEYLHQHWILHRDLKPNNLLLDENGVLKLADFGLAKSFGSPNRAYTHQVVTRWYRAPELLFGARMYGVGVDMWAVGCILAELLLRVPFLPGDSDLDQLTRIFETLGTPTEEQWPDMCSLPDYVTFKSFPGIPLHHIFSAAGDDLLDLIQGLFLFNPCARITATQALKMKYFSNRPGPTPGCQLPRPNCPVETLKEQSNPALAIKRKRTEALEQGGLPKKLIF
T4 sequence (P51946 whole entry partner): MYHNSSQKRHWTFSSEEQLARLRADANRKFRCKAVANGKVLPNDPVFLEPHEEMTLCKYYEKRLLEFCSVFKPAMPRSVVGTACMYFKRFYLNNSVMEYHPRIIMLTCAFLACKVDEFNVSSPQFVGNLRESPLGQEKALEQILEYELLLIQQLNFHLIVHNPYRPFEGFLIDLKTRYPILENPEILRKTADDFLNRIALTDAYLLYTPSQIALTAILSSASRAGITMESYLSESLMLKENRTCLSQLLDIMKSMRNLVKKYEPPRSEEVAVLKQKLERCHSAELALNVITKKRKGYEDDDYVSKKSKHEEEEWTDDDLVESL
T4 sequence (P51948 whole entry partner): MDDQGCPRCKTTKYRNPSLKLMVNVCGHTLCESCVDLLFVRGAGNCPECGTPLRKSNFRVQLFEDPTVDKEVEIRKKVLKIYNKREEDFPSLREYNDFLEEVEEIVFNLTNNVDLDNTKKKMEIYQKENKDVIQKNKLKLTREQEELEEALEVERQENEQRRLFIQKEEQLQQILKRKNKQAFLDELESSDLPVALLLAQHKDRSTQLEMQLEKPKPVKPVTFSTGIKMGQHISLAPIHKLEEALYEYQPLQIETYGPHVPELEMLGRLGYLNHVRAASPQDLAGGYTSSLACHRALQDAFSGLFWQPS
T6 sequence (P50750 whole entry): as the sequence (P50750 whole entry) above
T2 sequence (P49336 whole entry): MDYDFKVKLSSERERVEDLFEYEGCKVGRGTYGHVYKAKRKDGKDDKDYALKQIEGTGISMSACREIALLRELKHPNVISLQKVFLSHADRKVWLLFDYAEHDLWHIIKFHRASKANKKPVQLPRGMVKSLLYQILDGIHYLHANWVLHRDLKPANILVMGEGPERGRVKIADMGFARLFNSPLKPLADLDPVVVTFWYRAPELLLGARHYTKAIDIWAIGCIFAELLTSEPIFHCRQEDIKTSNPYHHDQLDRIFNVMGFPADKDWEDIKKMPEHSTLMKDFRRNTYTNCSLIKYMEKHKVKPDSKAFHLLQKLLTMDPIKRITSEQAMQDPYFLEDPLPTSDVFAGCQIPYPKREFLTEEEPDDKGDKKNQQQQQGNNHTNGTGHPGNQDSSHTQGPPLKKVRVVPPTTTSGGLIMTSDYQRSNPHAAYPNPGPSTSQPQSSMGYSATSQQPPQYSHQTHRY
T2 sequence (P24863 whole entry partner): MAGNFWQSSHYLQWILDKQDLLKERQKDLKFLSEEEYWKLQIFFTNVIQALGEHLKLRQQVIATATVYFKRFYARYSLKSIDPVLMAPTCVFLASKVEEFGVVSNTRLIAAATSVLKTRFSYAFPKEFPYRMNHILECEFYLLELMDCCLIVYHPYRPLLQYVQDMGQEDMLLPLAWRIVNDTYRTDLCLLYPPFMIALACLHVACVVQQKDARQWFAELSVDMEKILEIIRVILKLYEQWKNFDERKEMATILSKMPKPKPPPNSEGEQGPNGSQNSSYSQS

On to `COc1ccc(Cl)cc1-c1ncnc(Nc2cccc(CS(N)(=O)=O)c2)n1` [Compound B7, 3-[(4-(5-Chloro-2-methoxyphenyl)-1,3,5-triazin-2-yl)amino]benzenemethanesulfonamide], for which the Kd in [1] is 101 nM; in [2], above 10000 nM; in test [3], 55 nM; in test [4], above 10000 nM.

Take `COc1ccncc1-c1ncnc(Nc2cccc(CS(N)(=O)=O)c2)n1` [Compound B18, 3-[(4-(4-Methoxypyridin-3-yl)-1,3,5-triazin-2-yl)amino]benzenemethanesulfonamide]: the Kd in test [1] is 302 nM; in [2], 1760 nM; in test [3], 104 nM; in [4] it was above 10000 nM.

By IC50 is commonly meant the concentration that inhibits the measured activity by half. With `Nc1ccc(-c2ncnc(Nc3cccc(CS(N)(=O)=O)c3)n2)cn1` [Compound B23, 3-[(4-(6-Aminopyridin-3-yl)-1,3,5-triazin-2-yl)amino]benzenemethanesulfonamide], the IC50 in test [5] and in test [6] was above 30000 nM throughout. The Kd in test [1] was 26.2 nM; in test [3], 99 nM; in [4] it was above 10000 nM.

As to `COc1ccccc1-c1ncnc(Nc2cccc(S(C)(=O)=O)c2)n1` [Compound S1, 4-(2-Methoxyphenyl)-N-(3-(methylsulfonyl)phenyl)-1,3,5-triazin-2-amine], the IC50 in [7] was above 10000 nM; in [8], 1770 nM; in test [9], 24.7 nM. Further, the Kd in test [3] is 6.9 nM; in test [4], above 10000 nM; in test [10], 851 nM.

For the compound `COc1ccccc1-c1ncnc(Nc2ccc(CS(N)(=O)=O)cc2)n1` [Compound T1, 4-[(4-(2-Methoxyphenyl)-1,3,5-triazin-2-yl)amino]benzenemethanesulfonamide], the IC50 in test [7] was above 10000 nM; in test [8], 259 nM; in [9], 190 nM. Moreover, the Kd in test [3] was 43.7 nM; in test [4] it was above 10000 nM; in test [10], 237 nM.
